Measurements as given in US20170355705A1 (GlaxoSmithKline Intellectual Property (No.2) Limited, priority 2014, published 2017).

Molecular target: T1, SIRT1 (Homo sapiens, UniProt Q96EB6)
T1 sequence (Q96EB6 1-747): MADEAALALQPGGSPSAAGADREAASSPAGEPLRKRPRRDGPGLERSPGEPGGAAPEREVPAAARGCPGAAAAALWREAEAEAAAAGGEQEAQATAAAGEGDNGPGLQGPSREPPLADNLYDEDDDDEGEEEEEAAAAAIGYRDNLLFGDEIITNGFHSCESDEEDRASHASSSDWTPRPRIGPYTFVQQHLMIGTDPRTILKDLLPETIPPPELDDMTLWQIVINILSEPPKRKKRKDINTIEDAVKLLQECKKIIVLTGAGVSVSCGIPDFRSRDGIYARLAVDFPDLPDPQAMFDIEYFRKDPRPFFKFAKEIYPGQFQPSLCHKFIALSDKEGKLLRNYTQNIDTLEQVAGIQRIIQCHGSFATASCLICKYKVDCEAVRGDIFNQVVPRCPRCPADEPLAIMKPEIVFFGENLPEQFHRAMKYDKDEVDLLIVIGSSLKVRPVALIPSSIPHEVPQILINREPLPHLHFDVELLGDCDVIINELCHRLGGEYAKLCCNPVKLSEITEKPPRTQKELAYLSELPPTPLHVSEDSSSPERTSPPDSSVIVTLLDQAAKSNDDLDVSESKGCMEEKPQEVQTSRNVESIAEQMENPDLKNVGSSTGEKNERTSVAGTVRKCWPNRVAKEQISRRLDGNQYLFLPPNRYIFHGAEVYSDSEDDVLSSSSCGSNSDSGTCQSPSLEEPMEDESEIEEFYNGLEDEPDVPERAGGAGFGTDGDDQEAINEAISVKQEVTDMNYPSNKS
Experiment: Trp mass spectrometry assay of SIRT1 activity (EC1.5, percent maximum activation)
Format: biochemical
Conditions: Trp mass spectrometry assay; for TRP Activity (EC1.5): EC1.5 = concentration giving 150% activation of SIRT1; for TRP MAX RESP (percent maximum fold activation): percent maximum activation of SIRT1
In short: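 N-terminal His-tagged human SIRT1, expressed in BL21(DE3) and purified, was incubated 25 min with an acetylated Trp peptide and NAD plus test compound at varying concentrations, then quenched with formic acid. OAADPR or deacetylated peptide was quantified by mass spectrometry versus compound-free control; EC1.5 is the concentration giving 50% activity increase, with percent maximum activation.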

Compound | TRP Activity (EC1.5) | TRP MAX RESP (percent maximum fold activation)
Cn1cc(-c2ccc3c(n2)N(C(=O)Nc2cnccn2)[C@H]2CCN3C2)cn1 [Example 155, (4S)-7-(1-methyl-1H-pyrazol-4-yl)-N-(pyrazin-2-yl)-3,4-dihydro-1,4-methanopyrido[2,3-b][1,4]diazepine-5(2H)-carboxamide] | B (EC1.5 1-25 μM) | A (Fold activation ≧150%)
CCc1ccc(-c2ccc3c(n2)N(C(=O)Nc2cnccn2)[C@H]2CCN3C2)cn1 [Example 156, (4S)-7-(6-ethylpyridin-3-yl)-N-(pyrazin-2-yl)-3,4-dihydro-1,4-methanopyrido[2,3-b][1,4]diazepine-5(2H)-carboxamide] | B (EC1.5 1-25 μM) | A (Fold activation ≧150%)
Cc1cc(-c2ccc3c(n2)N(C(=O)Nc2ccc4[nH]ncc4c2)[C@H]2CCN3C2)ccn1 [Example 157, (4S)-N-(1H-indazol-5-yl)-7-(2-methylpyridin-4-yl)-3,4-dihydro-1,4-methanopyrido[2,3-b][1,4]diazepine-5(2H)-carboxamide] | A (EC1.5<1 μM) | A (Fold activation ≧150%)
CCc1cnc(NC(=O)N2c3nc(-c4ccnc(C)c4)ccc3N3CC[C@H]2C3)cn1 [Example 161, (4S)-N-(5-ethylpyrazin-2-yl)-7-(2-methylpyridin-4-yl)-3,4-dihydro-1,4-methanopyrido[2,3-b][1,4]diazepine-5(2H)-carboxamide] | A (EC1.5<1 μM) | A (Fold activation ≧150%)
Cc1ncc(-c2ccc3c(n2)N(C(=O)Nc2cnccn2)[C@H]2CCN3C2)o1 [Example 162, (4S)-7-(2-methyloxazol-5-yl)-N-(pyrazin-2-yl)-3,4-dihydro-1,4-methanopyrido[2,3-b][1,4]diazepine-5(2H)-carboxamide] | B (EC1.5 1-25 μM) | A (Fold activation ≧150%)
Cc1cc(-c2ccc3c(n2)N(C(=O)Nc2cnc(C4CC4)cn2)[C@H]2CCN3C2)ccn1 [Example 164, (4S)-N-(5-cyclopropylpyrazin-2-yl)-7-(2-methylpyridin-4-yl)-3,4-dihydro-1,4-methanopyrido[2,3-b][1,4]diazepine-5(2H)-carboxamide] | B (EC1.5 1-25 μM) | A (Fold activation ≧150%)
Cc1ncc(-c2ccc3c(n2)N(C(=O)Nc2cnccn2)[C@H]2CCN3C2)cn1 [Example 165, (4S)-7-(2-methylpyrimidin-5-yl)-N-(pyrazin-2-yl)-3,4-dihydro-1,4-methanopyrido[2,3-b][1,4]diazepine-5(2H)-carboxamide] | B (EC1.5 1-25 μM) | A (Fold activation ≧150%)
Cc1cc(-c2ccc3c(n2)N(C(=O)Nc2cncc(C4CC4)n2)[C@H]2CCN3C2)ccn1 [Example 166, (4S)-N-(6-cyclopropylpyrazin-2-yl)-7-(2-methylpyridin-4-yl)-3,4-dihydro-1,4-methanopyrido[2,3-b][1,4]diazepine-5(2H)-carboxamide] | A (EC1.5<1 μM) | A (Fold activation ≧150%)
Cc1cc(-c2ccc3c(n2)N(C(=O)N[C@H](C)c2ccccn2)[C@H]2CCN3C2)ccn1 [Example 169, (4S)-7-(2-methylpyridin-4-yl)-N-((R)-1-(pyridin-2-yl)ethyl)-3,4-dihydro-1,4-methanopyrido[2,3-b][1,4]diazepine-5(2H)-carboxamide] | C (EC1.5>25 μM) | B (Fold Activation <150%)
Cc1cc(-c2ccc3c(n2)N(C(=O)Nc2cnccn2)[C@H]2CCN3C2)cnc1C [Example 171, (4S)-7-(5,6-dimethylpyridin-3-yl)-N-(pyrazin-2-yl)-3,4-dihydro-1,4-methanopyrido[2,3-b][1,4]diazepine-5(2H)-carboxamide] | A (EC1.5<1 μM) | A (Fold activation ≧150%)
Cc1cc(-c2ccc3c(n2)N(C(=O)N2CCN(C)CC2)[C@H]2CCN3C2)ccn1 [Example 174, (4-methylpiperazin-1-yl)((4S)-7-(2-methylpyridin-4-yl)-3,4-dihydro-1,4-methanopyrido[2,3-b][1,4]diazepin-5(2H)-yl)methanone] | C (EC1.5>25 μM) | B (Fold Activation <150%)

The remaining lines, values ahead:

TRP Activity (EC1.5) | TRP MAX RESP (percent maximum fold activation) | Compound
B (EC1.5 1-25 μM) | A (Fold activation ≧150%) | Cc1cc(-c2ccc3c(n2)N(C(=O)Nc2nccc4nccnc24)[C@H]2CCN3C2)ccn1 [Example 152, (4S)-7-(2-methylpyridin-4-yl)-N-(pyrido[3,4-b]pyrazin-5-yl)-3,4-dihydro-1,4-methanopyrido[2,3-b][1,4]diazepine-5(2H)-carboxamide]
B (EC1.5 1-25 μM) | A (Fold activation ≧150%) | Cc1cc(-c2ccc3c(n2)N(C(=O)Nc2cccc4nnc(C)cc24)[C@H]2CCN3C2)ccn1 [Example 153, (4S)-N-(3-methylcinnolin-5-yl)-7-(2-methylpyridin-4-yl)-3,4-dihydro-1,4-methanopyrido[2,3-b][1,4]diazepine-5(2H)-carboxamide]
B (EC1.5 1-25 μM) | A (Fold activation ≧150%) | Cc1cncc(-c2ccc3c(n2)N(C(=O)Nc2cnccn2)[C@H]2CCN3C2)c1 [Example 154, (4S)-7-(5-methylpyridin-3-yl)-N-(pyrazin-2-yl)-3,4-dihydro-1,4-methanopyrido[2,3-b][1,4]diazepine-5(2H)-carboxamide]
B (EC1.5 1-25 μM) | A (Fold activation ≧150%) | Cc1cc(-c2ccc3c(n2)N(C(=O)Nc2cccnn2)[C@H]2CCN3C2)ccn1 [Example 158, (4S)-7-(2-methylpyridin-4-yl)-N-(pyridazin-3-yl)-3,4-dihydro-1,4-methanopyrido[2,3-b][1,4]diazepine-5(2H)-carboxamide]
B (EC1.5 1-25 μM) | A (Fold activation ≧150%) | Cc1cc(-c2ccc3c(n2)N(C(=O)Nc2cnccn2)[C@H]2CCN3C2)c(C)cn1 [Example 159, (4S)-7-(2,5-dimethylpyridin-4-yl)-N-(pyrazin-2-yl)-3,4-dihydro-1,4-methanopyrido[2,3-b][1,4]diazepine-5(2H)-carboxamide]
B (EC1.5 1-25 μM) | A (Fold activation ≧150%) | O=C(Nc1cnccn1)N1c2nc(N3CCOCC3)ccc2N2CC[C@H]1C2 [Example 160, (4S)-7-morpholino-N-(pyrazin-2-yl)-3,4-dihydro-1,4-methanopyrido[2,3-b][1,4]diazepine-5(2H)-carboxamide]
C (EC1.5>25 μM) | A (Fold activation ≧150%) | Cc1cc(-c2ccc3c(n2)N(C(=O)Nc2cncnc2)[C@H]2CCN3C2)ccn1 [Example 163, (4S)-7-(2-methylpyridin-4-yl)-N-(pyrimidin-5-yl)-3,4-dihydro-1,4-methanopyrido[2,3-b][1,4]diazepine-5(2H)-carboxamide]
B (EC1.5 1-25 μM) | A (Fold activation ≧150%) | Cc1cc(-c2ccc3c(n2)N(C(=O)Nc2c[nH]nn2)[C@H]2CCN3C2)ccn1 [Example 167, (4S)-7-(2-methylpyridin-4-yl)-N-(1H-1,2,3-triazol-4-yl)-3,4-dihydro-1,4-methanopyrido[2,3-b][1,4]diazepine-5(2H)-carboxamide]
C (EC1.5>25 μM) | B (Fold Activation <150%) | Cc1cc(-c2ccc3c(n2)N(C(=O)N[C@@H](C)c2ccccn2)[C@H]2CCN3C2)ccn1 [Example 168, (4S)-7-(2-methylpyridin-4-yl)-N-((S)-1-(pyridin-2-yl)ethyl)-3,4-dihydro-1,4-methanopyrido[2,3-b][1,4]diazepine-5(2H)-carboxamide]
B (EC1.5 1-25 μM) | A (Fold activation ≧150%) | CN(C)c1cccc(-c2ccc3c(n2)N(C(=O)Nc2cnccn2)[C@H]2CCN3C2)c1 [Example 172, (4S)-7-(3-(dimethylamino)phenyl)-N-(pyrazin-2-yl)-3,4-dihydro-1,4-methanopyrido[2,3-b][1,4]diazepine-5(2H)-carboxamide]
C (EC1.5>25 μM) | B (Fold Activation <150%) | Cc1cc(-c2ccc3c(n2)N(C(=O)N2CCCC2)[C@H]2CCN3C2)ccn1 [Example 173, ((4S)-7-(2-methylpyridin-4-yl)-3,4-dihydro-1,4-methanopyrido[2,3-b][1,4]diazepin-5(2H)-yl)(pyrrolidin-1-yl)methanone]
